This passage reports IC50, DC50 and Dmax results from patent US20260124309A1, “STAT6 DEGRADERS AND USES THEREOF” (Kymera Therapeutics, Inc., priority 2023, published 2026).

The target of assay [1] is T1, biotinylated truncated STAT6 (123-632)-avi (Homo sapiens, UniProt P42226).
T1 construct: biotinylated truncated STAT6 (123-632)-avi purified from E. coli; made in house; host or cells: E. coli
T1 sequence (P42226 123-632 limits assumed): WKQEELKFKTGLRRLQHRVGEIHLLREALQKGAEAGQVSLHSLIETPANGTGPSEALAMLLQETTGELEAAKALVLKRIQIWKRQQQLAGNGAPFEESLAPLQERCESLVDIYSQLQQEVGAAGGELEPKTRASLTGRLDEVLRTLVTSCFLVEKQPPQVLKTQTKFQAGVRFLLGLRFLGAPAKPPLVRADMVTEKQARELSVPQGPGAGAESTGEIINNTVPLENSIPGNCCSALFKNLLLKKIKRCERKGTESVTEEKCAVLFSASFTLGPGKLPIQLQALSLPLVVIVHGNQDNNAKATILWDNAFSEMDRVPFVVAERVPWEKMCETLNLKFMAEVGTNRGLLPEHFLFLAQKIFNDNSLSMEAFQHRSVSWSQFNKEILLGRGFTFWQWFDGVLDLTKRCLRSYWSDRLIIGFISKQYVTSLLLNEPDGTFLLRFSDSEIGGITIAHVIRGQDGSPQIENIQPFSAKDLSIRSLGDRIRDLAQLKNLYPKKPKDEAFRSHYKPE
Briefly: STAT6 HTRF binding assay. The note with it: HTRF binding, 0.15 nM biotinylated truncated STAT6 (123-632)-avi, 20 nM fluorescein-labeled probe. As for the experimental part:
HTRF binding assays were performed using 0.15 nM biotinylated truncated STAT6 (123-632)-avi purified from E. coli, 1× Streptavidin-terbium (CisBio) prepared by mixing SA-Tb in PPI detection buffer (CisBio), 20 nM proprietary fluorescein-labeled probe, and test compounds in assay buffer consisting of 50 mM HEPES-Na pH 7.5, 100 mM NaCl, 1 mM EDTA, 2 mM DTT, 0.1% Tween-20 with a final volume of 20 uL. Compound stocks were dissolved at 10 mM in 100% DMSO and 11 point titration with 3 fold serial dilution was performed in white, opaque 384 well microplates. Reaction plates were incubated at room temperature for 30 minutes. Plates were centrifuged at low rpm for 5 mins, and the ratio of fluorescence intensities were measured at emission wavelengths for fluorescein acceptor (520 nm) and terbium donor (495 nm) on Envision Plate reader. % Inhibition was calculated from the 520/495 ratio generated by using proprietary positive control compound for 100% inhibition and DMSO only reactions for 0% inhibition. Data was processed and dose response curves were generated using GraphPad Prism to determine the concentration required for inhibiting 50% of the HTRF signal (IC50).
The letter codes for IC50 (μM) include: A (<0.1 μM); B (0.1-1 μM); C (>1-10 μM); D (>10-100 μM); E (>100 μM); and F (not tested).
On the technique in general: TR-FRET usually uses a lanthanide donor and a delayed reading to cut background.

The next assay has as its target T2, STAT6-HiBiT (Homo sapiens, UniProt P42226).
T2 construct: Degradation of STAT6 in endogenously tagged STAT6-HiBiT A549 cells; endogenous in cells; host or cells: A549 (STAT6-HiBiT) knock-in cells
T2 sequence (P42226 1-847): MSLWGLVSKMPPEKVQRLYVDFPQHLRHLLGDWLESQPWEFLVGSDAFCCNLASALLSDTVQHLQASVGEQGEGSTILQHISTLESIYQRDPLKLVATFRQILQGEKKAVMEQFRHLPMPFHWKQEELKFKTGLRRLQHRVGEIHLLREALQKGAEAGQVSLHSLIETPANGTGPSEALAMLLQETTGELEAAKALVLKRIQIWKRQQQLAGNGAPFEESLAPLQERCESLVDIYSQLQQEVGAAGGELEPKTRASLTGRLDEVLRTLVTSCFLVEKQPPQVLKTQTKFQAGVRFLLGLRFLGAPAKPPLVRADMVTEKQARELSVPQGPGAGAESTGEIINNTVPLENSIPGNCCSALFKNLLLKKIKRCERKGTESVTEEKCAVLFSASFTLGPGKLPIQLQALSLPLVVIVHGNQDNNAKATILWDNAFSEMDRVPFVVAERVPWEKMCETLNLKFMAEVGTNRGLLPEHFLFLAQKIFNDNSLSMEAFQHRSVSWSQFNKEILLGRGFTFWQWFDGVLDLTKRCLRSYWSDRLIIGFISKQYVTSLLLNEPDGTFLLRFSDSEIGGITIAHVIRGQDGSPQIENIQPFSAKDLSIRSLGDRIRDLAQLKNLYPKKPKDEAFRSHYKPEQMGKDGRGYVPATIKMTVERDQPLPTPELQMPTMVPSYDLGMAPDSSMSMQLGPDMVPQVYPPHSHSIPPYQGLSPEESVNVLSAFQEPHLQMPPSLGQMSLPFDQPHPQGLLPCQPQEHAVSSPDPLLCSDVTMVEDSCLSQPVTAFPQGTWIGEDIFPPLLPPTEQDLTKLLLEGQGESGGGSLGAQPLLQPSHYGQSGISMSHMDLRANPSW
Briefly: STAT6 HiBiT degradation in A549 (STAT6-HiBiT) cells. The class given is cell-based. The note with it: 24 h. As for the experimental part:
Degradation of STAT6 in endogenously tagged STAT6-HiBiT A549 cells was quantitatively measured using the Nano-Glo HiBiT Lytic Detection System (Promega, 3040). A549 (STAT6-HiBiT) cells were seeded in 384-well plates with a density of 1.25k cells per well in 20 μl fresh media. Compounds were then added to the assay plates using the Apricot S3 with a final top concentration of up to 10 uM in a 4-fold dilution series with total of 10 doses. The assay plates were then incubated for 24 hours at 37° C. under 5% CO2. At the assay endpoint, 20 μL of Nano-Glo HiBiT Lytic Reagent was added to each well and agitated on a plate shaker at 300 rpm for 10 minutes at room temperature. Luminescence was read on PHERAStar FSX Instrument (Is integration time). The data was analyzed by GraphPad Prism and the dose dependent STAT6 degradation was fit using the four-parameter inhibitor vs. response nonlinear regression.
The letter codes for DC50 (nM) include: A (<1 nM): B (1-10 nM); C (>10-100 nM); D (>100-1000 nM); E (>1000 nM); and F (not tested). The letter codes for Dmax (%) include: A (>90%); B (>70-90%); C (>50-70%); D (<50%); and E (not tested).

The next assay has as its target T3, STAT6 (Homo sapiens, UniProt P42226).
T3 construct: endogenous in cells; host or cells: A549
T3 sequence (P42226 1-847): T2 sequence (P42226 1-847)
Put plainly: STAT6 MSD degradation in A549 cells. The settings on record: 24 h. The class given is cell-based. The method, then:
Degradation of STAT6 in cells was quantitatively measured using Meso Scale Discovery (MSD) technology. A549 cells were seeded in 96-well plates with a density of 1.5×10e4 to 5×10e5 cells per well in 100 μl fresh media. Compounds were then added to the assay plates with a final top concentration of up to 10 uM in a 1:3 dilution series with total of 9 doses. The assay plates were then incubated for 4 to 24 hours at 37° C. under 5% CO2. The assay plates were then centrifuged for 5 minutes and the cell pellets were treated with 100 μl/well RIPA lysis buffer (Boston Bioproducts, BP-115D) with protease and phosphatase inhibitors (Roche, 05892791001 and 04906837001). To prepare the MSD assay plates (MSD, L15XA), the plates were coated with the capture antibody (Abnova, H00006778) in PBS, at 40 μl/well. The plates were then incubated overnight at 4° C., washed 1 time with 150 μl/well TBST buffer (Cell Signaling Technology, #9997S) and blocked with 150 μl/well blocking buffer (MSD, R93BA-4). Cell lysates were then added to MSD assay plates and the plates were incubated at room temperature for 1 hour. The plates were then washed 3 times with 150 μl/well TBST buffer and 25 μl/well primary detection antibody (Cell Signaling Technology, #5397S). The assay plates were then incubated at room temperature for 1 hour, washed 3 times with 150 μl/well TBST buffer, and 25 μl/well secondary detection antibody, SULFO-TAG anti-rabbit antibody (MSD, R32AB-1) were added. The assay plates were then incubated at room temperature for 1 hour, washed 3 times with 150 μl/well TBST buffer, and 150 μl/well MSD reading buffer (MSD, R92TC-2) were added. The plates were then analyzed by an MSD reader. The data was analyzed by GraphPad Prism and the dose dependent STAT6 degradation was fit using the four-parameter inhibitor vs. response nonlinear regression.
The letter codes for DC50 (nM) include: A (<1 nM); B (1-10 nM); C (>10-100 nM); D (>100-1000 nM); E (>1000 nM); and F (not tested). The letter codes for Dmax (oo) include: A (>90%); B (>70-90%); C (>50-70%); D ([…]); and F (not tested).

As usually defined, the IC50 is the midpoint of a concentration-inhibition curve. Higher therefore signals lower potency. A word on the DC50: it is the concentration giving 50% degradation. A low value points to a more potent degrader. Broadly, the Dmax is the greatest extent of degradation seen. The low end stands for a partial loss of target, the high end for a fuller loss of target. In the case of `Cc1nn(C2CCC(=O)NC2=O)c2cccc(CCN3CCN(c4cc(Cl)c(-c5cc(C6=CCCN(C(=O)CCn7cccn7)C6)c(F)c6[nH]c(C(=O)N(C)C)cc56)cc4F)CC3)c12` (single isomer, unassigned) [Example I-1079], in assay [1], the IC50 is less than 100 nM. In addition, on STAT6-HiBiT, the DC50 is less than 1 nM and the Dmax is more than 90%.
The corresponding values for `CN(C)C(=O)c1cc2c(-c3ccc(C4CCN(c5ccc(C6CCC(=O)NC6=O)cc5F)CC4)cc3)cc(C3=CCCN(C(=O)CCn4ccnn4)C3)c(F)c2[nH]1` (single isomer, unassigned) [Example I-1439] are less than 100 nM, less than 1 nM and more than 90%.
On to `Cc1cc(C2CCN(c3cccc4c3n(C)c(=O)n4[C@@H]3CCC(=O)NC3=O)CC2)ccc1-c1cc(C2=CCCN(C(=O)C(C)C)C2)c(F)c2[nH]c(C(=O)N(C)C)cc12` (single isomer, unassigned) [Example I-790], for which the IC50 in assay [1] lay in the range of 1000 to 10000 nM. At STAT6, this molecule yielded a DC50 of 1 to 10 nM and a maximal degradation (Dmax) of more than 90%.
`Cc1cc(C2CCN(c3cccc4c3n(C)c(=O)n4C3CCC(=O)NC3=O)CC2)ccc1-c1cc(C2=CCCN(C(=O)C(C)C)C2)c(F)c2[nH]c(C(=O)N(C)C)cc12` (stereo not drawn) [Example I-566]: the IC50 in assay [1] fell in the range of 1000 to 10000 nM. On STAT6, the DC50 was less than 1 nM and the Dmax was more than 90%.
The like results for `CN(C)C(=O)c1cc2c(-c3ccc(C4CCN(c5ccc([C@H]6CCC(=O)NC6=O)cc5F)CC4)cc3)cc(C3=CCCN(C(=O)CCn4cccn4)C3)c(F)c2[nH]1` (single isomer, unassigned) [Example I-743] were, in that order, less than 100 nM, less than 1 nM and more than 90%.
In turn, `Cc1nn([C@H]2CCC(=O)NC2=O)c2cccc(CCN3CCN(c4cc(Cl)c(-c5cc(C6=CCCN(C(=O)CCn7cccn7)C6)c(F)c6[nH]c(C(=O)N(C)C)cc56)cc4F)CC3)c12` (single isomer, unassigned) [Example I-1078] yielded an IC50 in assay [1] of less than 100 nM. At STAT6-HiBiT, this molecule came in with a DC50 of less than 1 nM and a Dmax of more than 90%.
In the case of `CN(C)C(=O)c1cc2c(-c3ccc(C4CCN(c5ccc(N[C@@H]6CCC(=O)NC6=O)cc5F)CC4)cc3)cc(C3=CCCN(C(=O)CCn4cccn4)C3)c(F)c2[nH]1` (single isomer, unassigned) [Example I-797], the half-maximal inhibitory concentration (IC50) in assay [1] is less than 100 nM. At STAT6, this molecule showed a DC50 of 1 to 10 nM and a maximal degradation (Dmax) of 70 to 90%.
Consider `Cc1cc(C2CCN(c3cccc4c3n(C)c(=O)n4[C@H]3CCC(=O)NC3=O)CC2)ccc1-c1cc(C2=CCCN(C(=O)C(C)C)C2)c(F)c2[nH]c(C(=O)N(C)C)cc12` (single isomer, unassigned) [Example I-791], for which the IC50 in assay [1] was 1000 to 10000 nM. At STAT6, this molecule displayed a DC50 of less than 1 nM and a Dmax of more than 90%.
On to `CN(C)C(=O)c1cc2c(-c3ccc(C4CCN(c5ccc([C@@H]6CCC(=O)NC6=O)cc5F)CC4)cc3)cc(C3=CCCN(C(=O)CCn4ccnn4)C3)c(F)c2[nH]1` (single isomer, unassigned) [Example I-1438], for which the IC50 in assay [1] is less than 100 nM. Besides, on STAT6-HiBiT, the DC50 is less than 1 nM and the Dmax is more than 90%.
Molecule `COc1cc(N2CCN(c3ccc(-c4cc(C5=CCCN(C(=O)CCn6cccn6)C5)c(F)c5[nH]c(C(=O)N(C)C)cc45)cc3)CC2)c(F)cc1N[C@H]1CCC(=O)NC1=O` (single isomer, unassigned) [Example I-795] returned an IC50 in assay [1] of less than 100 nM. At STAT6, this molecule displayed a DC50 of less than 1 nM and a Dmax of more than 90%.
The corresponding values for `COc1cc(N2CCC(c3ccc(-c4cc(C5=CCCN(C(=O)CCn6cccn6)C5)c(F)c5[nH]c(C(=O)N(C)C)cc45)c(OC(F)(F)F)c3)CC2)c(F)cc1N[C@@H]1CCC(=O)NC1=O` (single isomer, unassigned) [Example I-792] are less than 100 nM, 1 to 10 nM and 70 to 90%.
